From article PMC4681097 (Chemistry & biology, 2011)

Molecular target: PHD2_181-426 (Homo sapiens, UniProt Q9GZT9)
Assay: Photo cross-linking of purified PHD2 analysed by MALDI-MS
Type: binding

PHD2_181-426, sequence (Q9GZT9 181-426): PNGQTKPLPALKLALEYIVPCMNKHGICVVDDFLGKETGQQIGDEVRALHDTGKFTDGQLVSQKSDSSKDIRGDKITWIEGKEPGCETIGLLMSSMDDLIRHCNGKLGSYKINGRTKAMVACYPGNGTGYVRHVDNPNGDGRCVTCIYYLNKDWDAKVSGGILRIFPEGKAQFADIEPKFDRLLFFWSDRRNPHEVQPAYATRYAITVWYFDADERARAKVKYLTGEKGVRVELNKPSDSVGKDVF

extent of cross-linking of PHD2 by DR025 in competition experiment: substantially reduced
SMILES: O=C(O)CNC(=O)c1nc(Cl)c2ccccc2c1O [[(1-chloro-4-hydroxyisoquinoline-3-carbonyl)-amino]-acetic acid]
